Reference: patent US20070197585A1, “Use of cysteinyl leukotriene 2 receptor antagonists” (priority 2004, published 2007)

Experiments:
CysLT1 receptor = target: T1, CysLT1 receptor (Homo sapiens, UniProt Q9Y271); experiment: LTD4-induced calcium flux (calcium mobilization, FLIPR) in CysLT1 receptor transfected HEK293T cells; type: cell-based; settings: antagonist dose-response curve, read-out: IC50 of blocking LTD4-induced calcium flux, CysLT1 receptor
T1 construct: expressed in transfected cells; host or cells: HEK293T
T1 sequence (Q9Y271 1-337): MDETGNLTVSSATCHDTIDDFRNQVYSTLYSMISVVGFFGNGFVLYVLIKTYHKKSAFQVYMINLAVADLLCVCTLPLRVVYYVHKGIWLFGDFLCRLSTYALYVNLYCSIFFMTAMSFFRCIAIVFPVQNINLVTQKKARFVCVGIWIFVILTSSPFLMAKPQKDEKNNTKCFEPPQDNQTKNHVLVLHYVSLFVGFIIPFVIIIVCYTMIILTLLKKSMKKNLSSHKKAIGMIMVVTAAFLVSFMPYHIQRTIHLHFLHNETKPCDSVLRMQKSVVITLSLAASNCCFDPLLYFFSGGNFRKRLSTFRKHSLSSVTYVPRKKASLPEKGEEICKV
Method: (§1) Compounds may be screened for effects on LTD4 induced calcium mobilization in cells transfected with CysLT2 receptor, according to the following calcium mobilization assay.
(§2) Human embryonic kidney (HEK293T) cells transiently transfected with the CysLT2 receptor using LipofectAMINE™2000 reagent (Life Technologies) or Chinese hamster ovary (CHO-NFAT) cells stably transfected with the CysLT2 type receptor are plated into Poly-D-Lysine treated black-wall microplates (Biocoat™) at 5×10^4 cells per well. Cells are maintained for approximately 24 hours at 37° C. and 5% CO2. After 24 hours, cells are loaded with Fluo4 calcium indicator dye (Molecular Probes) in the presence of 2.5 mM probenecid for one hour. After washing, the cells are treated with agonist, (10 nM LTD4, BioMol), and maximum fluorescence measured in a Molecular Devices Fluorometric Imaging Plate Reader (FLIPR). Compounds screened for antagonism are added five minutes prior to addition of agonist.
Compounds of interest from the CysLT2 receptor screen may also be assayed in a CysLT1 receptor counter screen. Compounds of interest may be assayed using the same protocol described above in cells transfected with the CysLT1 receptor.
(§3) Agonist and Standard Antagonist Functional Characterization on Human CysLT1 and CysLT2 Receptors

CysLT2 receptor = target: T2, CysLT2 receptor (Homo sapiens, UniProt Q9NS75); experiment: LTD4-induced calcium flux (calcium mobilization, FLIPR) in CysLT2 receptor-transfected cells; type: cell-based; settings: antagonist dose-response curve, read-out: IC50 of blocking LTD4-induced calcium flux, CysLT2 receptor
T2 construct: expressed in transfected cells
T2 sequence (Q9NS75 1-346): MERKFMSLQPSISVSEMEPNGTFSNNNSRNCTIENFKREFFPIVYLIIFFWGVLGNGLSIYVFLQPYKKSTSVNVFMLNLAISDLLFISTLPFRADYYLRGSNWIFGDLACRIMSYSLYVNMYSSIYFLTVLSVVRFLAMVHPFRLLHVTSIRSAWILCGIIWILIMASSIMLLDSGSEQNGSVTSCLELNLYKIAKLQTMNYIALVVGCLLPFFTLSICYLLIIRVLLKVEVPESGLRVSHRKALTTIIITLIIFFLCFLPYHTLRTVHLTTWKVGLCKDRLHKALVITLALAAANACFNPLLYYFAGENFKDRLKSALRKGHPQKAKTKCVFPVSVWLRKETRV
Method: as §1, §2, §3

## CCCCCCCCCc1ccc(C(Sc2cccc(NC(=O)CC(=O)O)c2)C(=O)CCCC(=O)O)cc1 (stereo not drawn) [Compound (I), 6-({3-[(carboxyacetyl)amino]phenyl}thio)-6-(4-nonylphenyl)-5-oxohexanoic acid]
CysLT1 receptor
  IC50: < 10 µM
other
  melting point: 88 to 91 °C
CysLT2 receptor
  IC50: < 10 µM
